“And” between values parts separate entries of the source, which are not always exact repeats. Identical values can stand only once. Toxic doses and inconclusive results are not listed.
Tested on: BDF1 mice, P388 leukemia ip, median survival T/C
Experiment: NCI In Vivo Anticancer Drug Screen. Data for tumor model P388 Leukemia (intraperitoneal) in B6D2F1 (BDF1) mice
Details: endpoint: median survival time, higher = longer survival
Method in brief: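 Antitumour effect was judged in vivo: survival in drug-treated mice, normalised to that of vehicle-dosed controls, gives the reported T/C.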

COc1cc2cc3c4cc(OC)c(OC)cc4cc[n+]3c(C)c2cc1OC (tested in a mixture with another compound)
T/C (dose: 8.0 mg/kg/injection, schedule: Q01DX008 (ip), vehicle: other): 156 % of control
T/C (dose: 8.0 mg/kg/injection, schedule: Q01DX009 (ip), vehicle: clinical formulation): 155 % of control
T/C (dose: 8.0 mg/kg/injection, schedule: Q03HX008 (ip), vehicle: other): 111 % of control
T/C (dose: 9.3 mg/kg/injection, schedule: Q01DX009 (ip), vehicle: saline): 150 % of control
T/C (dose: 12.5 mg/kg/injection, schedule: Q04DX003 (ip), vehicle: other): 121 % of control
T/C (dose: 16.0 mg/kg/injection, schedule: Q01DX008 (ip), vehicle: other): 154 % of control
T/C (dose: 16.0 mg/kg/injection, schedule: Q01DX008 (ip), vehicle: water): 163 % of control
T/C (dose: 16.0 mg/kg/injection, schedule: Q01DX009 (ip), vehicle: Klucel (hydroxypropylcellulose) (HPC)): 157 % of control
T/C (dose: 16.0 mg/kg/injection, schedule: Q01DX009 (ip), vehicle: clinical formulation): 161 % of control
T/C (dose: 16.0 mg/kg/injection, schedule: Q01DX009 (oral), vehicle: other): 94 % of control
T/C (dose: 16.0 mg/kg/injection, schedule: Q01DX009 (sc), vehicle: other): 101 % of control
T/C (dose: 16.0 mg/kg/injection, schedule: Q03HX016 (ip), vehicle: other): 153 % of control
T/C (dose: 16.0 mg/kg/injection, schedule: Q03HX024 (ip), vehicle: other): 174 % of control
T/C (dose: 32.0 mg/kg/injection, schedule: Q01DX008 (ip), vehicle: Klucel (hydroxypropylcellulose) (HPC)): 182 % of control
T/C (dose: 32.0 mg/kg/injection, schedule: Q01DX008 (ip), vehicle: other): 167 % of control
T/C (dose: 32.0 mg/kg/injection, schedule: Q01DX008 (ip), vehicle: water): 163 % of control
T/C (dose: 32.0 mg/kg/injection, schedule: Q01DX009 (ip), vehicle: Klucel (hydroxypropylcellulose) (HPC)): 186 % of control
T/C (dose: 32.0 mg/kg/injection, schedule: Q01DX009 (ip), vehicle: clinical formulation): 211 % of control
T/C (dose: 32.0 mg/kg/injection, schedule: Q01DX009 (oral), vehicle: other): 103 % of control
T/C (dose: 32.0 mg/kg/injection, schedule: Q01DX009 (sc), vehicle: other): 115 % of control
T/C (dose: 32.0 mg/kg/injection, schedule: Q03HX016 (ip), vehicle: other): 182 % of control
T/C (dose: 32.0 mg/kg/injection, schedule: Q03HX024 (ip), vehicle: other): 190 % of control
T/C (dose: 37.5 mg/kg/injection, schedule: Q01DX009 (ip), vehicle: saline): 175 % of control
T/C (dose: 37.5 mg/kg/injection, schedule: Q04DX003 (ip), vehicle: saline): 162 % of control
T/C (dose: 46.7 mg/kg/injection, schedule: Q04DX003 (ip), vehicle: alkali diluted with saline): 165 % of control
T/C (dose: 50.0 mg/kg/injection, schedule: Q04DX002 (ip), vehicle: saline): 154 % of control
T/C (dose: 50.0 mg/kg/injection, schedule: Q04DX003 (ip), vehicle: saline): 157 % of control
T/C (dose: 50.0 mg/kg/injection, schedule: Q04DX003 (ip), vehicle: water): 158 % of control
T/C (dose: 64.0 mg/kg/injection, schedule: Q01DX001 (ip), vehicle: other): 120 % of control
T/C (dose: 64.0 mg/kg/injection, schedule: Q01DX001 (oral), vehicle: other): 100 % of control
T/C (dose: 64.0 mg/kg/injection, schedule: Q01DX001 (sc), vehicle: other): 103 % of control
T/C (dose: 64.0 mg/kg/injection, schedule: Q01DX008 (ip), vehicle: Klucel (hydroxypropylcellulose) (HPC)): 208 % of control
T/C (dose: 64.0 mg/kg/injection, schedule: Q01DX008 (ip), vehicle: other): 206 % of control
T/C (dose: 64.0 mg/kg/injection, schedule: Q01DX008 (ip), vehicle: water): 185 % of control
T/C (dose: 64.0 mg/kg/injection, schedule: Q01DX009 (ip), vehicle: Klucel (hydroxypropylcellulose) (HPC)): 182 % of control and 203 % of control
T/C (dose: 64.0 mg/kg/injection, schedule: Q01DX009 (ip), vehicle: clinical formulation): 194 % of control
T/C (dose: 64.0 mg/kg/injection, schedule: Q01DX009 (oral), vehicle: other): 107 % of control
T/C (dose: 64.0 mg/kg/injection, schedule: Q04DX003 (ip), vehicle: other): 161 % of control and 163 % of control
T/C (dose: 64.0 mg/kg/injection, schedule: Q04DX003 (ip), vehicle: water): 159 % of control
T/C (dose: 75.0 mg/kg/injection, schedule: Q01DX001 (ip), vehicle: saline): 154 % of control
T/C (dose: 75.0 mg/kg/injection, schedule: Q01DX009 (ip), vehicle: saline): 183 % of control
T/C (dose: 75.0 mg/kg/injection, schedule: Q04DX003 (ip), vehicle: saline): 158 % of control
T/C (dose: 77.8 mg/kg/injection, schedule: Q04DX003 (ip), vehicle: alkali diluted with saline): 165 % of control
T/C (dose: 86.4 mg/kg/injection, schedule: Q04DX003 (ip), vehicle: other): 193 % of control
T/C (dose: 100.0 mg/kg/injection, schedule: Q04DX002 (ip), vehicle: saline): 154 % of control and 169 % of control
T/C (dose: 100.0 mg/kg/injection, schedule: Q04DX003 (ip), vehicle: other): 155 % of control
T/C (dose: 100.0 mg/kg/injection, schedule: Q04DX003 (ip), vehicle: water): 200 % of control
T/C (dose: 128.0 mg/kg/injection, schedule: Q01DX001 (oral), vehicle: other): 98 % of control
T/C (dose: 128.0 mg/kg/injection, schedule: Q01DX001 (sc), vehicle: other): 100 % of control
T/C (dose: 128.0 mg/kg/injection, schedule: Q01DX008 (ip), vehicle: other): 156 % of control
T/C (dose: 128.0 mg/kg/injection, schedule: Q01DX009 (ip), vehicle: Klucel (hydroxypropylcellulose) (HPC)): 186 % of control
T/C (dose: 128.0 mg/kg/injection, schedule: Q01DX009 (oral), vehicle: other): 103 % of control
T/C (dose: 128.0 mg/kg/injection, schedule: Q01DX009 (sc), vehicle: other): 159 % of control
T/C (dose: 128.0 mg/kg/injection, schedule: Q04DX003 (ip), vehicle: Klucel (hydroxypropylcellulose) (HPC)): 156 % of control
T/C (dose: 128.0 mg/kg/injection, schedule: Q04DX003 (ip), vehicle: other): 167 % of control and 175 % of control
T/C (dose: 128.0 mg/kg/injection, schedule: Q08DX002 (ip), vehicle: other): 155 % of control
T/C (dose: 130.0 mg/kg/injection, schedule: Q04DX003 (ip), vehicle: alkali diluted with saline): 180 % of control
T/C (dose: 144.0 mg/kg/injection, schedule: Q04DX003 (ip), vehicle: other): 207 % of control
T/C (dose: 150.0 mg/kg/injection, schedule: Q01DX001 (ip), vehicle: saline): 150 % of control
T/C (dose: 150.0 mg/kg/injection, schedule: Q04DX003 (ip), vehicle: saline): 175 % of control
T/C (dose: 200.0 mg/kg/injection, schedule: Q04DX002 (ip), vehicle: saline): 163 % of control and 176 % of control
T/C (dose: 200.0 mg/kg/injection, schedule: Q04DX003 (ip), vehicle: other): 189 % of control
T/C (dose: 216.0 mg/kg/injection, schedule: Q04DX003 (ip), vehicle: alkali diluted with saline): 205 % of control
T/C (dose: 256.0 mg/kg/injection, schedule: Q01DX001 (oral), vehicle: other): 103 % of control
T/C (dose: 256.0 mg/kg/injection, schedule: Q01DX001 (sc), vehicle: other): 108 % of control
T/C (dose: 256.0 mg/kg/injection, schedule: Q01DX009 (oral), vehicle: other): 112 % of control
T/C (dose: 256.0 mg/kg/injection, schedule: Q04DX003 (ip), vehicle: Klucel (hydroxypropylcellulose) (HPC)): 156 % of control
T/C (dose: 256.0 mg/kg/injection, schedule: Q04DX003 (ip), vehicle: other): 206 % of control and 208 % of control
T/C (dose: 256.0 mg/kg/injection, schedule: Q08DX002 (ip), vehicle: other): 174 % of control
T/C (dose: 300.0 mg/kg/injection, schedule: Q01DX001 (ip), vehicle: saline): 166 % of control
T/C (dose: 300.0 mg/kg/injection, schedule: Q04DX003 (ip), vehicle: saline): 220 % of control
T/C (dose: 400.0 mg/kg/injection, schedule: Q04DX002 (ip), vehicle: saline): 163 % of control
T/C (dose: 512.0 mg/kg/injection, schedule: Q01DX001 (oral), vehicle: other): 99 % of control
T/C (dose: 512.0 mg/kg/injection, schedule: Q01DX001 (sc), vehicle: other): 107 % of control
T/C (dose: 512.0 mg/kg/injection, schedule: Q01DX009 (oral), vehicle: other): 112 % of control
